For two compounds, IC50 results are on record in paper PMC8341977, “Towards novel herbicide modes of action by inhibiting lysine biosynthesis in plants” (eLife, 2021).

The target in assay [1] is T1, AtDHDPS2 (dihydrodipicolinate synthase 2) (Arabidopsis thaliana, UniProt Q9FVC8).
T1 construct: gene DHDPS2; recombinant, fusion tag cleaved
T1 sequence (Q9FVC8 40-365): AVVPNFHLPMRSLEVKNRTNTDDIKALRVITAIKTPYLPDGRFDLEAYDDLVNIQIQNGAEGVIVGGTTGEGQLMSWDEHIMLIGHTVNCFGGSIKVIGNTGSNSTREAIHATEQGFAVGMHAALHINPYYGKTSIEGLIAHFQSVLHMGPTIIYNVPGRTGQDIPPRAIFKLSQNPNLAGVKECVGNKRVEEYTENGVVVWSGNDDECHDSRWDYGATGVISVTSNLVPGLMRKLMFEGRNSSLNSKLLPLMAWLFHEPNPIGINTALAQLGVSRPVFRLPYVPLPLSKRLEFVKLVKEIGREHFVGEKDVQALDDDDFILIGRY
The assay is described as follows: DHDPS–DHDPR coupled enzyme assay (NADPH oxidation). In kind it is biochemical.

Assay [2] deals with T2, AtDHDPS1 (dihydrodipicolinate synthase 1) (Arabidopsis thaliana, UniProt Q9LZX6).
T2 construct: gene DHDPS1; recombinant, fusion tag cleaved
T2 sequence (Q9LZX6 40-365): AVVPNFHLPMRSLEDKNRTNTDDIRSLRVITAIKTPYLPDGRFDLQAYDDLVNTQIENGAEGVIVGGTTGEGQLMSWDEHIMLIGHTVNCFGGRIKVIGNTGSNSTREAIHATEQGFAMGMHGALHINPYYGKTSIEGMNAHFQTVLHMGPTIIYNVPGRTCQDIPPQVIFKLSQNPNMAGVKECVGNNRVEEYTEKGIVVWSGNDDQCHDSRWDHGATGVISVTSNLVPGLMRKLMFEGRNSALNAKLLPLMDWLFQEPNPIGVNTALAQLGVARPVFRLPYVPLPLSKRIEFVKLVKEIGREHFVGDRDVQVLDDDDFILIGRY
Briefly: DHDPS–DHDPR coupled enzyme assay (NADPH oxidation). In kind it is biochemical.

Where two headings read alike, the source gives them in different places.

Usually IC50 stands for the concentration that inhibits the measured activity by half. As to `COc1ccc(C=C2SC(=O)N(CC(=O)O)C2=O)cc1` (stereo in doubt) [MBDTA-2, (Z)−2-(5-(4-methoxybenzylidene)−2,4-dioxothiazolidin-3-yl)acetic acid], the IC50 in assay [1] came out at 64 ± 1 µM.

On to `COc1ccccc1/C=C1\SC(=O)N(CC(=O)O)C1=O` [MBDTA-1, (Z)−2-(5-(2-methoxybenzylidene)−2,4-dioxothiazolidin-3-yl)acetic acid], for which the figures for the concentration for half-maximal inhibition (IC50) in assay [1] (read-out: IC50) and in assay [2] were 116 ± 5.2 µM and 126 ± 6.5 µM, respectively.
